Laboratory results as given in patent US20250296971A1, “GASTRIC INHIBITORY PEPTIDE RECEPTOR LIGANDS” (priority 2021, published 2025).
*1 amine or outer side, *2 acyl side, *3 side chain or, on linkers, in order; H or OH if unused. Where a SMILES comes first, the peptide text is derived from it. Bridges are numbered along the chain shown (N, C = ends). Side-chain parts run from the residue outwards. [ ]: non-standard residue; d: D form. The star is where a group is joined. X2 = O=C(O)CN1CCN(CC(=O)O)CCN(CC(=O)N[C@@H](CCC(=O)NC[C@H](O)[C@@H](O)[C@H](O)[C@H](O)CO)C(=O)*)CCN(CC(=O)O)CC1; X3 = O=C(O)CN1CCN(CC(=O)O)CCN(CC(=O)NCCCOCCOCCOCCCN*)CCN(CC(=O)O)CC1; NH(1-deoxy-D-glucityl) = OC[C@@H](O)[C@@H](O)[C@H](O)[C@@H](O)CN*; Pro(trans-4-NH2) = O=C([C@@H]1C[C@@H](N[*:3])CN1[*:1])[*:2]; DOTA = O=C(O)CN1CCN(CC(=O)O)CCN(CC(=O)*)CCN(CC(=O)O)CC1; Trp(5-Cl) = N[C@@H](Cc1c[nH]c2ccc(Cl)cc12)C(=O)O; Pyridine(2,6-diCH2) = c1cc(C[*:1])nc(C[*:2])c1; Pro(4R-NH2) = N[C@H]1CN[C@H](C(=O)O)C1; Glutaryl = O=C(CCCC(=O)[*:2])[*:1]; X7 = c1cc(CSCCN[*:2])cc(C[*:1])c1; Hyp = O=C(O)[C@@H]1C[C@@H](O)CN1; X1 = O=C(CN1CCC(N[*:1])CC1)[*:2]; Suc = O=C(CCC(=O)[*:2])[*:1]; hSer = N[C@@H](CCO)C(=O)O; Api = NC1(C(=O)O)CCNCC1; Thp = NC1(C(=O)O)CCOCC1

Biological target: T1, GIPR (CHO-K1-hGIPR cells) (Homo sapiens, UniProt P48546)
T1 construct: host or cells: CHO-K1
T1 sequence (P48546 22-466): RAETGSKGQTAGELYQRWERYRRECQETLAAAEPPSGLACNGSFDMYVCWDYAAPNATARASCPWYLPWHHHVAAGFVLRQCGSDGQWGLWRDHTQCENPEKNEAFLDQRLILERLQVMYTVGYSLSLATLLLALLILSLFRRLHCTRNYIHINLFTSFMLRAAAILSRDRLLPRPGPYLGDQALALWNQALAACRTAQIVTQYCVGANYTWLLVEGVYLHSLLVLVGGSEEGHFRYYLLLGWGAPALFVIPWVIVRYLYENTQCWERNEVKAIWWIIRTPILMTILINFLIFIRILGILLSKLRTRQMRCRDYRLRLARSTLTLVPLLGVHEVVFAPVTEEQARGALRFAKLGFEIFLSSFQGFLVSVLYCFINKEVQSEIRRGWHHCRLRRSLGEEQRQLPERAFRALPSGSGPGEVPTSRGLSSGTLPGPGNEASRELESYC
Assay: FACS binding assay
Details: competition with 20 nM GIP-057, 4° C., 1 hour, read-out: pIC50 Category (converted)
Procedure, shortened: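 Peptide binding read by flow cytometry as APC-channel median fluorescence, fitted with a four-parameter logistic to yield EC50 or IC50. Cells were hGIPR-transfected CHO-K1 in PBS with 1% FCS, detected with 1 μg/mL APC-streptavidin, 30 min on ice.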

Row | SMILES | IC50 [nM]
1 | CC[C@H](C)[C@@H]1NC(=O)[C@H](CC(C)C)NC(=O)C2(CCN(C(=O)CCCC(=O)NC[C@H](O)[C@@H](O)[C@H](O)[C@H](O)CO)CC2)NC(=O)[C@@H](NC(=O)[C@@H](CC(C)C)NC(=O)[C@H](CCC(=O)O)NC(=O)[C@@H]2C[C@@H](N)CN2C(=O)[C@H](Cc2c[nH]c3ccc(Cl)cc23)NC(=O)[C@H](Cc2c[nH]c3ccccc23)NC(=O)[C@H](CC(=O)O)NC(=O)[C@@H](CCC(=O)NC[C@H](O)[C@@H](O)[C@H](O)[C@H](O)CO)NC(=O)CN2CCN(CC(=O)O)CCN(CC(=O)O)CCN(CC(=O)O)CC2)CSCc2cccc(n2)CSC[C@@H](C(=O)NC2CCN(CC(=O)N[C@H](CCC(=O)NC[C@H](O)[C@@H](O)[C@H](O)[C@H](O)CO)C(N)=O)CC2)NC1=O [GIP-045, DOTA-glu(AGLU)-Asp-Trp-5Clw-Tap-Glu-leu-[Cys(2Lut)-Apc(AGLU-Glutar)-Leu-Ile-Cys]-APAc-glu(AGLU)-NH2] ({DOTA}-[dE](NH(1-deoxy-D-glucityl))DW[Trp(5-Cl)][Pro(4R-NH2)]E[dL]C[Api]([Glutaryl-NH(1-deoxy-D-glucityl)])LIC[X1][dE](NH(1-deoxy-D-glucityl))-NH2; linker 8-12 via Pyridine(2,6-diCH2)) | < 10
2 | CC[C@H](C)[C@@H]1NC(=O)[C@H](CC(C)C)NC(=O)C2(CCN(C(=O)[C@H](CCC(=O)NC[C@H](O)[C@@H](O)[C@H](O)[C@H](O)CO)NC(=O)CN3CCN(CC(=O)O)CCN(CC(=O)O)CCN(CC(=O)O)CC3)CC2)NC(=O)[C@@H](NC(=O)[C@@H](CC(C)C)NC(=O)[C@H](CCC(=O)O)NC(=O)[C@@H]2C[C@@H](O)CN2C(=O)[C@H](Cc2c[nH]c3ccc(Cl)cc23)NC(=O)[C@H](Cc2c[nH]c3ccccc23)NC(=O)[C@H](CCO)NC(=O)CN2CCC(NC(=O)CCCC(=O)NC[C@H](O)[C@@H](O)[C@H](O)[C@H](O)CO)CC2)CSCc2cccc(n2)CSC[C@@H](C(=O)NC2CCN(CC(=O)N[C@H](CCC(=O)NC[C@H](O)[C@@H](O)[C@H](O)[C@H](O)CO)C(N)=O)CC2)NC1=O [GIP-047, AGLU-Glutar-APAc-Hse-Trp-5Clw-Hyp-Glu-leu-[Cys(2Lut)-Apc(DOTA-glu(AGLU))-Leu-Ile-Cys]-APAc-glu(AGLU)-NH2] ({NH(1-deoxy-D-glucityl)-Glutaryl}-[X1][hSer]W[Trp(5-Cl)][Hyp]E[dL]C[Api](X2)LIC[X1][dE](NH(1-deoxy-D-glucityl))-NH2; linker 8-12 via Pyridine(2,6-diCH2)) | 10 to 79.4
3 | CC[C@H](C)[C@@H]1NC(=O)[C@H](CC(C)C)NC(=O)C2(CCN(C(=O)CN3CCN(CC(=O)O)CCN(CC(=O)O)CCN(CC(=O)O)CC3)CC2)NC(=O)[C@@H](NC(=O)[C@@H](CC(C)C)NC(=O)[C@H](CCC(=O)O)NC(=O)[C@@H]2C[C@@H](N)CN2C(=O)[C@H](Cc2c[nH]c3ccc(Cl)cc23)NC(=O)[C@H](Cc2c[nH]c3ccccc23)NC(=O)[C@H](CCO)NC(=O)CN2CCC(NC(=O)CCCC(=O)NC[C@H](O)[C@@H](O)[C@H](O)[C@H](O)CO)CC2)CSCc2cccc(n2)CSC[C@@H](C(=O)NC2CCN(CC(=O)N[C@H](CCC(=O)NC[C@H](O)[C@@H](O)[C@H](O)[C@H](O)CO)C(N)=O)CC2)NC1=O [GIP-050, AGLU-Glutar-APAc-Hse-Trp-5Clw-Tap-Glu-leu-[Cys(2Lut)-Apc(DOTA)-Leu-Ile-Cys]-APAc-glu(AGLU)-NH] ({NH(1-deoxy-D-glucityl)-Glutaryl}-[X1][hSer]W[Trp(5-Cl)][Pro(4R-NH2)]E[dL]C[Api](DOTA)LIC[X1][dE](NH(1-deoxy-D-glucityl))-NH2; linker 8-12 via Pyridine(2,6-diCH2)) | 10 to 79.4
4 | CC[C@H](C)[C@@H]1NC(=O)[C@H](CC(C)C)NC(=O)C2(CCN(C(=O)CN3CCN(CC(=O)O)CCN(CC(=O)O)CCN(CC(=O)O)CC3)CC2)NC(=O)[C@@H](NC(=O)[C@@H](CC(C)C)NC(=O)[C@H](CCC(=O)O)NC(=O)[C@@H]2C[C@@H](N)CN2C(=O)[C@H](Cc2c[nH]c3ccc(Cl)cc23)NC(=O)[C@H](Cc2c[nH]c3ccccc23)NC(=O)[C@H](CC(=O)O)NC(=O)CCCC(=O)NC[C@H](O)[C@@H](O)[C@H](O)[C@H](O)CO)CSCc2cccc(n2)CSC[C@@H](C(=O)NC2CCN(CC(=O)N[C@H](CCC(=O)NC[C@H](O)[C@@H](O)[C@H](O)[C@H](O)CO)C(N)=O)CC2)NC1=O [GIP-051, AGLU-Glutar-Asp-Trp-5Clw-Tap-Glu-leu-[cys(2Lut)-Apc(DOTA)-Leu-Ile-Cys]-APAc-glu(AGLU)-NH2] ({NH(1-deoxy-D-glucityl)-Glutaryl}-DW[Trp(5-Cl)][Pro(4R-NH2)]E[dL]C[Api](DOTA)LIC[X1][dE](NH(1-deoxy-D-glucityl))-NH2; linker 7-11 via Pyridine(2,6-diCH2)) | 10 to 79.4
5 | CC[C@H](C)[C@@H]1NC(=O)[C@H](CC(C)C)NC(=O)C2(CCN(C(=O)CN3CCN(CC(=O)O)CCN(CC(=O)O)CCN(CC(=O)O)CC3)CC2)NC(=O)[C@@H](NC(=O)[C@@H](CC(C)C)NC(=O)[C@H](CCC(=O)O)NC(=O)[C@@H]2C[C@@H](N)CN2C(=O)[C@H](Cc2c[nH]c3ccc(Cl)cc23)NC(=O)[C@H](Cc2c[nH]c3ccccc23)NC(=O)[C@H](CC(=O)O)NC(=O)CCCC(=O)NC[C@H](O)[C@@H](O)[C@H](O)[C@H](O)CO)CSCc2cccc(n2)CSC[C@@H](C(=O)NC2CCN(CC(=O)N[C@H](CCC(=O)NC[C@H](O)[C@@H](O)[C@H](O)[C@H](O)CO)C(N)=O)CC2)NC1=O [GIP-052, AGLU-Glutar-Asp-Trp-5Clw-Tap-Glu-leu-[cys(2Lut)-Apc(DOTA)-Leu-Ile-cys]-APAc-glu(AGLU)-NH2] ({NH(1-deoxy-D-glucityl)-Glutaryl}-DW[Trp(5-Cl)][Pro(4R-NH2)]E[dL]C[Api](DOTA)LIC[X1][dE](NH(1-deoxy-D-glucityl))-NH2; linker 7-11 via Pyridine(2,6-diCH2)) | 10 to 79.4
6 | CC[C@H](C)[C@@H]1NC(=O)[C@H](CC(C)C)NC(=O)C2(CCN(C(=O)CN3CCN(CC(=O)O)CCN(CC(=O)O)CCN(CC(=O)O)CC3)CC2)NC(=O)[C@@H](NC(=O)[C@@H](CC(C)C)NC(=O)[C@H](CCC(=O)O)NC(=O)[C@@H]2CCCN2C(=O)[C@H](Cc2c[nH]c3ccc(Cl)cc23)NC(=O)[C@H](Cc2c[nH]c3ccccc23)NC(=O)[C@H](CC(=O)O)NC(=O)CCC(=O)NCCCOCCOCCOCCCNC(=O)CN2CCN(CC(=O)O)CCN(CC(=O)O)CCN(CC(=O)O)CC2)CSCc2cccc(c2)CSCCNC1=O [GIP-053, DOTA-Ttds-Asp-Trp-5Clw-Pro-Glu-leu-[Cys(3MeBn)-Apc(DOTA)-Leu-Ile-AET]] ({X3-Suc}-DW[Trp(5-Cl)]PE[dL]C[Api](DOTA)LI; linker 7-C via X7) | < 10
7 | CC[C@H](C)[C@@H]1NC(=O)[C@H](CC(C)C)NC(=O)C2(CCOCC2)NC(=O)[C@@H](NC(=O)[C@@H](CC(C)C)NC(=O)[C@H](CCC(=O)O)NC(=O)[C@@H]2C[C@@H](O)CN2C(=O)[C@H](Cc2c[nH]c3ccc(Cl)cc23)NC(=O)[C@H](Cc2c[nH]c3ccccc23)NC(=O)[C@H](CC(=O)O)NC(=O)CCC(=O)NCCCOCCOCCOCCCNC(=O)CN2CCN(CC(=O)O)CCN(CC(=O)O)CCN(CC(=O)O)CC2)CSCc2cccc(n2)CSC[C@@H](C(=O)N[C@@H](CCCCNC(=O)CN2CCN(CC(=O)O)CCN(CC(=O)O)CCN(CC(=O)O)CC2)C(N)=O)NC1=O [GIP-054, DOTA-Ttds-Asp-Trp-5Clw-Hyp-Glu-leu-[Cys(2Lut)-Thp-Leu-Ile-Cys]-Lys(DOTA)-NH2] ({X3-Suc}-DW[Trp(5-Cl)][Hyp]E[dL]C[Thp]LICK(DOTA)-NH2; linker 7-11 via Pyridine(2,6-diCH2)) | < 10
8 | CC[C@H](C)[C@@H]1NC(=O)[C@H](CC(C)C)NC(=O)C2(CCN(C(=O)CN3CCN(CC(=O)O)CCN(CC(=O)O)CCN(CC(=O)O)CC3)CC2)NC(=O)[C@@H](NC(=O)[C@@H](CC(C)C)NC(=O)[C@H](CCC(=O)O)NC(=O)[C@@H]2C[C@@H](O)CN2C(=O)[C@H](Cc2c[nH]c3ccc(Cl)cc23)NC(=O)[C@H](Cc2c[nH]c3ccccc23)NC(=O)[C@H](CC(=O)O)NC(=O)CCC(=O)NCCCOCCOCCOCCCNC(=O)CN2CCN(CC(=O)O)CCN(CC(=O)O)CCN(CC(=O)O)CC2)CSCc2cccc(n2)CSC[C@@H](C(=O)N[C@@H](CCCCNC(=O)CN2CCN(CC(=O)O)CCN(CC(=O)O)CCN(CC(=O)O)CC2)C(N)=O)NC1=O [GIP-055, DOTA-Ttds-Asp-Trp-5Clw-Hyp-Glu-leu-[Cys(2Lut)-Apc(DOTA)-Leu-Ile-Cys]-Lys(DOTA)-NH2] ({X3-Suc}-DW[Trp(5-Cl)][Hyp]E[dL]C[Api](DOTA)LICK(DOTA)-NH2; linker 7-11 via Pyridine(2,6-diCH2)) | < 10
9 | CC[C@H](C)[C@@H]1NC(=O)[C@H](CC(C)C)NC(=O)C2(CCN(C(=O)CN3CCN(CC(=O)O)CCN(CC(=O)O)CCN(CC(=O)O)CC3)CC2)NC(=O)[C@@H](NC(=O)[C@@H](CC(C)C)NC(=O)[C@H](CCC(=O)O)NC(=O)[C@@H]2C[C@@H](NC(=O)CN3CCN(CC(=O)O)CCN(CC(=O)O)CCN(CC(=O)O)CC3)CN2C(=O)[C@H](Cc2c[nH]c3ccc(Cl)cc23)NC(=O)[C@H](Cc2c[nH]c3ccccc23)NC(=O)[C@H](CC(=O)O)NC(=O)CCC(=O)NCCCOCCOCCOCCCNC(=O)CN2CCN(CC(=O)O)CCN(CC(=O)O)CCN(CC(=O)O)CC2)CSCc2cccc(n2)CSC[C@@H](C(=O)N[C@@H](CCCCNC(=O)CN2CCN(CC(=O)O)CCN(CC(=O)O)CCN(CC(=O)O)CC2)C(N)=O)NC1=O [GIP-056, DOTA-Ttds-Asp-Trp-5Clw-Tap(DOTA)-Glu-leu-[Cys(2Lut)-Apc(DOTA)-Leu-Ile-Cys]-Lys(DOTA)-NH2] ({X3-Suc}-DW[Trp(5-Cl)][Pro(trans-4-NH2)](DOTA)E[dL]C[Api](DOTA)LICK(DOTA)-NH2; linker 7-11 via Pyridine(2,6-diCH2)) | < 10
